Laboratory results published in patent US20230151003A1, “COMPOUNDS AND METHODS OF USE” (Exelixis, Inc., priority 2020, published 2023).
Counter-ions that a name gives are not always drawn.

Assays:
Met = Met (Homo sapiens, UniProt P08581); assay: Met autophosphorylation ELISA in PC-3 cells; type: cell-based; parameters: endogenous in cells; host or cells: PC-3 prostate cancer cells (ATCC #CRL-1435); conditions: Table 3 Cellular Activities, HGF-stimulated, phospho-Met ELISA, read-out: c-Met IC50
Procedure, shortened: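 Serum-starved (3 h) PC-3 cells pre-incubated 1 h with compound (8-point dose curve, 0.3% DMSO), then stimulated with 100 ng/mL recombinant human HGF for 10 min. Lysate phospho-Met (panTyr) measured by sandwich ELISA; IC50 from 4-parameter logistic fit, normalised to DMSO (100%) and reference-inhibitor (0%) controls.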

Mer = molecular target: T1, Mer (Homo sapiens, UniProt Q12866); assay: Mer autophosphorylation ELISA in transient transfected 293A cells; type: cell-based; conditions: Table 3 Cellular Activities; MERTK-transfected 293A cells, phospho-Mer ELISA
T1 construct: host or cells: 293A cells (Thermo Fisher #R70507)
T1 sequence (Q12866 21-999): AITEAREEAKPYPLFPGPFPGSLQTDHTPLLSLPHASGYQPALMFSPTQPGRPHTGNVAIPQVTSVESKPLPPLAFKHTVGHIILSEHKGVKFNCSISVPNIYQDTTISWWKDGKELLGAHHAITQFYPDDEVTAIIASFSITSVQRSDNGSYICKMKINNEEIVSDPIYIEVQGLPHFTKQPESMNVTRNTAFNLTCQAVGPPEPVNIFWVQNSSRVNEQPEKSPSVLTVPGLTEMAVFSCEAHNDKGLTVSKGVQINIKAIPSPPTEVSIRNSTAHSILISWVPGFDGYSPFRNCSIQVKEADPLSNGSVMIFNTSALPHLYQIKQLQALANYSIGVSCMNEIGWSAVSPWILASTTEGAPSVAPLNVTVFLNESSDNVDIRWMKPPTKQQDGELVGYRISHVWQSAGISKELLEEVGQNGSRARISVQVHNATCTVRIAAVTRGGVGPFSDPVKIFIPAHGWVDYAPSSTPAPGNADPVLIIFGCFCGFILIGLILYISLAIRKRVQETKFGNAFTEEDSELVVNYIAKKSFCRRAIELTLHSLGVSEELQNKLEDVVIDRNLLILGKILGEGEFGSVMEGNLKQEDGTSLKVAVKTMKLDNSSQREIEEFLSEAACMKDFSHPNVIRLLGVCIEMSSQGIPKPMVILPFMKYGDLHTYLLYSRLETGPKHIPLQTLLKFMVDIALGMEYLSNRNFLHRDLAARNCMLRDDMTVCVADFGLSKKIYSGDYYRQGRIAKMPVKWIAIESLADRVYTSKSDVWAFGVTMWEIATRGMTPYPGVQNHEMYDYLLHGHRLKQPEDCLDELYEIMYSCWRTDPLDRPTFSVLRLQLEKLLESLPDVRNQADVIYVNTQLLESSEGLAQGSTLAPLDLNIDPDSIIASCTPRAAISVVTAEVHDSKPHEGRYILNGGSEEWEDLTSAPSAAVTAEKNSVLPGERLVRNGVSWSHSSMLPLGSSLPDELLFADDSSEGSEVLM
Procedure, shortened: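 293A cells transiently transfected with human MERTK DNA, replated after 24 h, then treated 1 h with 8-point compound dilutions in serum-free medium (0.3% DMSO). Lysates assayed by phospho-Mer sandwich ELISA against phospho-Mer standard; DMSO = 100%, reference inhibitor = 0% activity; IC50 by 4-parameter logistic fit.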

Sequence of Met (P08581 25-1390): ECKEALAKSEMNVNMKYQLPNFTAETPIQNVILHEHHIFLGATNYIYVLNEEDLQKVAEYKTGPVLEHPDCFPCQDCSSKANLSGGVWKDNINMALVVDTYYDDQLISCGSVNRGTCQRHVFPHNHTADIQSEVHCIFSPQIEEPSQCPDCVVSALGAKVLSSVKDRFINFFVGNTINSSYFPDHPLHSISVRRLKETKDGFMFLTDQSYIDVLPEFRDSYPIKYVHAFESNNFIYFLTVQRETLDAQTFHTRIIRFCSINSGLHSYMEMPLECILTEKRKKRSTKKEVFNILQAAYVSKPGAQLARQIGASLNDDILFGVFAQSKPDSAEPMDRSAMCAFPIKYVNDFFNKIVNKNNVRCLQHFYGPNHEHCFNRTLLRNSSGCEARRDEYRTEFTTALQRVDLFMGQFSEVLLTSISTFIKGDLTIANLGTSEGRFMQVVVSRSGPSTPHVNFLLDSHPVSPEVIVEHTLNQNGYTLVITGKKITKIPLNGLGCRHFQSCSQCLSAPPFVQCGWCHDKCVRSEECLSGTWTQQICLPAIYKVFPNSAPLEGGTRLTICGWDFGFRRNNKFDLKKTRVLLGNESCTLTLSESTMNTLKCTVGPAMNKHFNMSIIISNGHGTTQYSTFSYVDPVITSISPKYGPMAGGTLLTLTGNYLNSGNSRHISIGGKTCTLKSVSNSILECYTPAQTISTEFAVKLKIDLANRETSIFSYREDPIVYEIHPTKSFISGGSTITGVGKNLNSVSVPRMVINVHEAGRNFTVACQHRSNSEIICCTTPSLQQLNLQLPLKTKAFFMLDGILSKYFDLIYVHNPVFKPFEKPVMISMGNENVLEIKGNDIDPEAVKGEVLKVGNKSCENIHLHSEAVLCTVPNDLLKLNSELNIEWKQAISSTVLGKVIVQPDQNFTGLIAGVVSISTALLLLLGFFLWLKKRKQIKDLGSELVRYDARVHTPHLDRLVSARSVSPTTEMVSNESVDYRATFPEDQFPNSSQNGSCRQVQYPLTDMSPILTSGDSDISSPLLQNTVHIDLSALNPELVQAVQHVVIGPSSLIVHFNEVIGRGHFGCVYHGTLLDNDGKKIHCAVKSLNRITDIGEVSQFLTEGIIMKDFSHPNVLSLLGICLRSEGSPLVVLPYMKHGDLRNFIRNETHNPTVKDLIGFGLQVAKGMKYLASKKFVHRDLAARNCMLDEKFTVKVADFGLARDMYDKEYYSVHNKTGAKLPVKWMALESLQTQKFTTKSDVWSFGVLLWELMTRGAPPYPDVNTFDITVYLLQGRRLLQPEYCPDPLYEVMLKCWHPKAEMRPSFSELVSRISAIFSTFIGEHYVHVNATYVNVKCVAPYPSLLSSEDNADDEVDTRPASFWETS

IC50 (Met) [nM]	IC50 (Mer) [nM]	Structure (SMILES)
≤ 100	≤ 100	COCc1nc(C)c(-c2ccc(F)cn2)c(O)c1C(=O)Nc1ccc(Oc2ccnc3cc(OC)c(OC)nc23)c(F)c1 [Compound 214, N-[4-[(6,7-Dimethoxy-1,5-naphthyridin-4-yl)oxy]-3-fluorophenyl]-5-(5-fluoropyridin-2-yl)-4-hydroxy-2-(methoxymethyl)-6-methylpyridine-3-carboxamid]
≤ 100	≤ 100	COc1cnc2c(Oc3ccc(NC(=O)c4ccc(C)n(-c5ccc(F)cn5)c4=O)cc3F)ccnc2c1 [Compound 45, N-[3-Fluoro-4-[(7-methoxy-1,5-naphthyridin-4-yl)oxy]phenyl]-1-(5-fluoropyridin-2-yl)-6-methyl-2-oxopyridine-3-carboxamide]
≤ 100	≤ 100	COc1cc2nccc(Oc3ccc(NC(=O)c4cc(C(C)=O)c(C)n(-c5ccc(F)cn5)c4=O)cc3F)c2nc1OC [Compound 59, 5-Acetyl-N-[4-[(6,7-dimethoxy-1,5-naphthyridin-4-yl)oxy]-3-fluorophenyl]-1-(5-fluoropyridin-2-yl)-6-methyl-2-oxopyridine-3-carboxamide]
≤ 100	≤ 100	COc1cc2nccc(Oc3ccc(NC(=O)c4c(C)n(C)cc(-c5ccc(F)cn5)c4=O)cc3)c2nc1OC [Compound 72, N-[4-[(6,7-Dimethoxy-1,5-naphthyridin-4-yl)oxy]phenyl]-5-(5-fluoropyridin-2-yl)-1,2-dimethyl-4-oxopyridine-3-carboxamide]
≤ 100	≤ 100	COc1cnc2c(Oc3ccc(NC(=O)c4c(C)nc(C)c(-c5ccc(F)cn5)c4O)cc3F)ccnc2c1 [Compound 217, N-[3-Fluoro-4-[(7-methoxy-1,5-naphthyridin-4-yl)oxy]phenyl]-5-(5-fluoropyridin-2-yl)-4-hydroxy-2,6-dimethylpyridine-3-carboxamide]
≤ 100	≤ 100	COc1cc2nccc(Oc3ccc(NC(=O)c4cnc(C)c(-c5ccco5)c4O)cc3F)c2cc1OC [Compound 259, N-[4-(6,7-Dimethoxyquinolin-4-yl)oxy-3-fluorophenyl]-5-(furan-2-yl)-4-hydroxy-6-methylpyridine-3-carboxamide]
≤ 100	≤ 100	COc1cc2nccc(Oc3ccc(NC(=O)c4ccc(C)n(-c5ccncc5)c4=O)cc3F)c2nc1OC [Compound 221, N-[4-[(6,7-Dimethoxy-1,5-naphthyridin-4-yl)oxy]-3-fluorophenyl]-6-methyl-2-oxo-1-pyridin-4-ylpyridine-3-carboxamid]
≤ 100	≤ 100	COCCOc1cc2nccc(Oc3ccc(NC(=O)c4ccc(C)n(-c5ccc(F)cn5)c4=O)cc3F)c2nc1OC [Compound 50, N-[3-Fluoro-4-[[6-methoxy-7-(2-methoxyethoxy)-1,5-naphthyridin-4-yl]oxy]phenyl]-1-(5-fluoropyridin-2-yl)-6-methyl-2-oxopyridine-3-carboxamide]
300 to 1000	≤ 100	COc1cc2nccc(Oc3ccc(NC(=O)c4c(C)n(C)c(C)c(-c5coc6ccccc56)c4=O)cc3F)c2nc1OC [Compound 262, 5-(1-Benzofuran-3-yl)-N-[4-[(6,7-dimethoxy-1,5-naphthyridin-4-yl)oxy]-3-fluorophenyl]-1,2,6-trimethyl-4-oxopyridine-3-carboxamide]
≤ 100	≤ 100	COc1cc2nccc(Oc3ccc(NC(=O)c4c5n(cc(-c6cc(C)cs6)c4=O)CCOC5)cc3F)c2nc1OC [Compound 302, N-[4-[(6,7-Dimethoxy-1,5-naphthyridin-4-yl)oxy]-3-fluorophenyl]-7-(4-methylthiophen-2-yl)-8-oxo-3,4-dihydro-1H-pyrido[2,1-c][1,4]oxazine-9-carboxamide]
≤ 100	≤ 100	COc1ccc2nccc(Oc3ccc(NC(=O)c4ccc(C)n(-c5ccc(F)cn5)c4=O)cc3F)c2c1 [Compound 49, N-[3-Fluoro-4-(6-methoxyquinolin-4-yl)oxyphenyl]-1-(5-fluoropyridin-2-yl)-6-methyl-2-oxopyridine-3-carboxamide]
≤ 100	≤ 100	COc1cc2nccc(Oc3ccc(NC(=O)c4c(C)ncc(-c5ccccn5)c4O)cc3F)c2nc1OC [Compound 69, N-[4-[(6,7-Dimethoxy-1,5-naphthyridin-4-yl)oxy]-3-fluorophenyl]-4-hydroxy-2-methyl-5-pyridin-2-ylpyridine-3-carboxamide]
≤ 100	≤ 100	COc1cc2nccc(Oc3ccc(NC(=O)c4ccc(C)n(-c5ccc(F)cn5)c4=O)cc3F)c2nc1OC [Compound 43, N-[4-[(6,7-Dimethoxy-1,5-naphthyridin-4-yl)oxy]-3-fluorophenyl]-1-(5-fluoropyridin-2-yl)-6-methyl-2-oxopyridine-3-carboxamide]
300 to 1000	100 to 300	COCCOc1cc2nccc(Oc3ccc(NC(=O)c4c(C)n(C)c(C)c(-c5cc6ccccc6o5)c4=O)cc3F)c2nc1OC [Compound 263, 5-(1-Benzofuran-2-yl)-N-[3-fluoro-4-[[6-methoxy-7-(2-methoxyethoxy)-1,5-naphthyridin-4-yl]oxy]phenyl]-1,2,6-trimethyl-4-oxopyridine-3-carboxamide]
≤ 100	≤ 100	COc1cc2nccc(Oc3ccc(NC(=O)c4c(C)ncc(-c5ncc(F)cc5C)c4O)cc3F)c2nc1OC [Compound 200, N-[4-[(6,7-Dimethoxy-1,5-naphthyridin-4-yl)oxy]-3-fluorophenyl]-5-(5-fluoro-3-methylpyridin-2-yl)-4-hydroxy-2-methylpyridine-3-carboxamide]
≤ 100	≤ 100	COc1cc2nccc(Oc3ccc(NC(=O)c4c(C)cc(C)n(-c5ccc(F)cn5)c4=O)cc3)c2nc1OC [Compound 245, N-[4-[(6,7-Dimethoxy-1,5-naphthyridin-4-yl)oxy]phenyl]-1-(5-fluoropyridin-2-yl)-4,6-dimethyl-2-oxopyridine-3-carboxamide]
≤ 100	≤ 100	COc1cc2nccc(Oc3ccc(NC(=O)c4cnc(C)c(-c5cccs5)c4O)cc3)c2nc1OC [Compound 256, N-[4-[(6,7-Dimethoxy-1,5-naphthyridin-4-yl)oxy]phenyl]-4-hydroxy-6-methyl-5-thiophen-2-ylpyridine-3-carboxamide]
≤ 100	≤ 100	COc1cnc2c(Oc3ccc(NC(=O)c4c(C)n(C)cc(-c5ccc(F)cn5)c4=O)cc3F)ccnc2c1 [Compound 73, N-[3-Fluoro-4-[(7-methoxy-1,5-naphthyridin-4-yl)oxy]phenyl]-5-(5-fluoropyridin-2-yl)-1,2-dimethyl-4-oxopyridine-3-carboxamide]
≤ 100	300 to 1000	COc1cc2nccc(Oc3ccc(NC(=O)c4cccn(-c5ccnc(O)c5)c4=O)cc3F)c2nc1OC [Compound 248, N-[4-[(6,7-Dimethoxy-1,5-naphthyridin-4-yl)oxy]-3-fluorophenyl]-1-(2-hydroxypyridin-4-yl)-2-oxopyridine-3-carboxamide hydrochloride]
300 to 1000	100 to 300	COc1cc2nccc(Oc3ccc(NC(=O)c4c(C)n(C)c(C)c(-c5cc6ccccc6o5)c4=O)cc3F)c2nc1OC [Compound 261, 5-(1-Benzofuran-2-yl)-N-[4-[(6,7-dimethoxy-1,5-naphthyridin-4-yl)oxy]-3-fluorophenyl]-1,2,6-trimethyl-4-oxopyridine-3-carboxamide]
≤ 100	≤ 100	COc1ccc2nccc(Oc3ccc(NC(=O)c4ccc(C)n(-c5ncc(F)cc5C)c4=O)cc3F)c2n1 [Compound 53, N-[3-Fluoro-4-[(6-methoxy-1,5-naphthyridin-4-yl)oxy]phenyl]-1-(5-fluoro-3-methylpyridin-2-yl)-6-methyl-2-oxopyridine-3-carboxamide]
